Laboratory results published in PMC6271681, “Discovery of Novel c-Met Inhibitors Bearing a 3-Carboxyl Piperidin-2-one Scaffold” (Molecules, 2014).

Key:
c-Met kinase = c-Met kinase (Homo sapiens, UniProt P08581); assay: c-Met kinase assay (ELISA, purified recombinant protein); format: biochemical; conditions: for IC50: ELISA, poly(Glu,Tyr)4:1 substrate, two separate experiments; for inhibition at 10 µM / c-Met inhibition rate @10 μM: compound at 10 μM; for inhibition at 10 µM: read-out: c-Met inhibition rate @10 μM; for inhibition at 1 µM: read-out: c-Met inhibition rate @1 μM
Method: The effects of indicated compound on the activities of c-Met kinases were determined using enzyme-linked immunosorbent assays (ELISAs) with purified recombinant proteins. Briefly, 20 μg/mL poly (Glu,Tyr)4:1 (Sigma, St. Louis, MO, USA) was pre-coated in 96-well plates as a substrate. A 50-μL aliquot of 10 μmol/L ATP solution diluted in kinase reaction buffer (50 mmol/L HEPES [pH 7.4], 50 mmol/L MgCl2, 0.5 mmol/L MnCl2, 0.2 mmol/L Na3VO4, and 1 mmol/L DTT) was added to each well; 1 μL of various concentrations of indicated compound diluted in 1% DMSO (v/v) (Sigma) were then added to each reaction well. DMSO (1%, v/v) was used as the negative control. The kinase reaction was initiated by the addition of purified c-Met tyrosine kinase proteins diluted in 49 μL of kinase reaction buffer. After incubation for 60 min at 37 °C, the plate was washed three times with phosphate-buffered saline (PBS) containing 0.1% Tween 20 (T-PBS). Anti-phosphotyrosine (PY99) antibody (100 μL; 1:500, diluted in 5 mg/mL BSA T-PBS) was then added. After a 30-min incubation at 37 °C, the plate was washed three times, and 100 μL horseradish peroxidase-conjugated goat anti-mouse IgG (1:2000, diluted in 5 mg/mL BSA T-PBS) was added. The plate was then incubated at 37 °C for 30 min and washed 3 times. A 100-μL aliquot of a solution containing 0.03% H2O2 and 2 mg/ml o-phenylenediamine in 0.1 mol/L citrate buffer (pH 5.5) was added. The reaction was terminated by the addition of 50 μL of 2 mol/L H2SO4 as the color changed, and the plate was analyzed using a multi-well spectrophotometer (SpectraMAX 190, Molecular Devices, Sunnyvale, CA, USA) at 490 nm. […] The IC50 values were calculated from the inhibition curves in two separate experiments.

MKN45 cells = assay: Cell proliferation assay (SRB, 72 h); format: cell-based; conditions: MKN-45, MKN45 human gastric cancer cell line with constitutively active c-Met
Method: Cells were seeded in 96-well tissue culture plates. On the next day, the cells were exposed to various concentrations of compounds and further cultured for 72 h. Cell proliferation was then determined using sulforhodamine B (SRB, Sigma, St. Louis, MO, USA). The IC50 values were calculated by concentration-response curve fitting using the four-parameter method.

c-Met = conditions: in Figure 2; cited from earlier work
[1] = printed in the c-Met IC50 column
[2] = compound at 1 μM, printed in the c-Met IC50 column

Sequence of c-Met kinase (P08581 25-1390): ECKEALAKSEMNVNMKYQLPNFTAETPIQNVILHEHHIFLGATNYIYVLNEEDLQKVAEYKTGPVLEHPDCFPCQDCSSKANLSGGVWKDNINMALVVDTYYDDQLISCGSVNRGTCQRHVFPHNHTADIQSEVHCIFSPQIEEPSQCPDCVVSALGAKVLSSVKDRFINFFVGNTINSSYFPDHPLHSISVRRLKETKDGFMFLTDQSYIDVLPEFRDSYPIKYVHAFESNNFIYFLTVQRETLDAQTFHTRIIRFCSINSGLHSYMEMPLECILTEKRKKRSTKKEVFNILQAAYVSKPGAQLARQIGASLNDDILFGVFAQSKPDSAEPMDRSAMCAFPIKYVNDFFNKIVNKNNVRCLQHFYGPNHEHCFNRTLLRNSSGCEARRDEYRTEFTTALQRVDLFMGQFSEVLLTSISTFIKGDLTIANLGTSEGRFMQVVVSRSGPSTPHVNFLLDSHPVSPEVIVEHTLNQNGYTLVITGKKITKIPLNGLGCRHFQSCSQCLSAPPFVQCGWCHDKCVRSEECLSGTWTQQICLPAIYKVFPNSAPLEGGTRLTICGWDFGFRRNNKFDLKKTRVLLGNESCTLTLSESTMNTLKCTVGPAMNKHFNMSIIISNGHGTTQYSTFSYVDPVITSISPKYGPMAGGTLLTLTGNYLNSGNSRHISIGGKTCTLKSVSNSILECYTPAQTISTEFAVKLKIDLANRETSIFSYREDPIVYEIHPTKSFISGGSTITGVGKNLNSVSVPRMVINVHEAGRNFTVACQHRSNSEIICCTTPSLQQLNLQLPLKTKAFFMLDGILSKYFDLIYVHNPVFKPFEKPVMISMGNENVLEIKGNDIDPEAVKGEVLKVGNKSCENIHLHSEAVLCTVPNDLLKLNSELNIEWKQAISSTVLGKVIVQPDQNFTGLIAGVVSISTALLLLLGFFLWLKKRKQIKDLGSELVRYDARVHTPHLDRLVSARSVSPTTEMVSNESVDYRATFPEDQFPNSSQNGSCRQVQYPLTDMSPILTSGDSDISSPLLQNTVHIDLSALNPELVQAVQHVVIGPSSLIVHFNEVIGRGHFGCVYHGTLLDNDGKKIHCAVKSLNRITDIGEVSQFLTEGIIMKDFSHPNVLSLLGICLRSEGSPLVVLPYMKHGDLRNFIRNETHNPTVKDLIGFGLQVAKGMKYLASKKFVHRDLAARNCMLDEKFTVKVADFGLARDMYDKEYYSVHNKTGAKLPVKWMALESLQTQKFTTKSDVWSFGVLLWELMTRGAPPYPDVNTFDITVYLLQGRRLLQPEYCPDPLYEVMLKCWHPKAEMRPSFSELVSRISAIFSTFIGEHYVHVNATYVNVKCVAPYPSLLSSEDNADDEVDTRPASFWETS

Q: For `CCOc1ccn(-c2ccc(F)cc2)c(=O)c1C(=O)Nc1ccc(Oc2ccnc(N)c2Cl)c(F)c1` [BMS-777607, N-(4-(2-amino-3-chloropyridin-4-yloxy)-3-fluorophenyl)-4-ethoxy-1-(4-fluorophenyl)-2-oxo-1,2-dihydropyridine-3-carboxamide, reference compound], which IC50 (c-Met kinase) is on record?
A: 3.7 ± 1.3 nM

Q: And the IC50 (MKN45 cells)?
A: 290 ± 20 nM

Q: What about the IC50 (c-Met) of the same compound?
A: 3.9 nM

Q: For `COc1cc2nccc(Oc3ccc(NC(=O)C4CCCN(c5ccc(F)cc5)C4=O)cc3F)c2cc1OC` (centres unmarked) [Compound 20a, N-(4-((6,7-dimethoxyquinolin-4-yl)oxy)-3-fluorophenyl)-1-(4-fluorophenyl)-2-oxopiperidine-3-carbox-amide], which inhibition at 10 µM (c-Met kinase; [1]) is on record?
A: 38.4%

Q: Which IC50 (MKN45 cells) does the source give for `COc1cc2nccc(Oc3ccc(NC(=O)C4(Cl)CCCN(c5ccc(F)cc5)C4=O)cc3F)c2cc1OC` (centres unmarked) [Compound 20b, 3-Chloro-N-(4-((6,7-dimethoxyquinolin-4-yl)oxy)-3-fluorophenyl)-1-(4-fluorophenyl)-2-oxopiperidine-3-carboxamide] here?
A: 570 ± 40 nM

Q: Which IC50 (c-Met kinase) does the source give for `CCC1(C(=O)Nc2ccc(Oc3ccnc4cc(OC)c(OC)cc34)c(F)c2)CCCN(c2ccc(F)cc2)C1=O` (centres unmarked) [Compound 20d, N-(4-((6,7-dimethoxyquinolin-4-yl)oxy)-3-fluorophenyl)-3-ethyl-1-(4-fluorophenyl)-2-oxopiperidine-3-carboxamide] here?
A: 19.1 ± 4.5 nM

Q: What about the IC50 (MKN45 cells) of the same compound?
A: 2950 ± 120 nM

Q: For `COc1ccc(CNc2nccc(Oc3ccc(NC(=O)C4CCCN(c5ccc(F)cc5)C4=O)cc3F)n2)cc1` (centres unmarked) [Compound 18a, N-(3-fluoro-4-((2-((4-methoxybenzyl)amino)pyrimidin-4-yl)oxy)phenyl)-1-(4-fluorophenyl)-2-oxo-piperidine-3-carboxamide], which inhibition at 10 µM (c-Met kinase; [1]) is on record?
A: 28.4%

Q: For `NC(=O)c1nccc(Oc2ccc(NC(=O)C3(Cl)CCCN(c4ccc(F)cc4)C3=O)cc2F)c1Cl` (centres unmarked) [Compound 15b, 3-Chloro-4-(4-(3-chloro-1-(4-fluorophenyl)-2-oxopiperidine-3-carboxamido)-2-fluorophenoxy)-picolinamide], which inhibition at 1 µM (c-Met kinase; [2]) is on record?
A: 38.7%

Q: What about the inhibition at 10 µM (c-Met kinase; [1]) of the same compound?
A: 90.2%

Q: Which “c-Met inhibition rate @1 μM” value (c-Met kinase; [2]) does the source give for “N-(4-((7H-pyrrolo[2,3-d]pyrimidin-4-yl)oxy)-3-fluorophenyl)-1-(4-fluorophenyl)-2-oxopiperidine-3-carboxamide [Compound 17a]” here?
A: 41.9%@1 μM

Q: And the “c-Met inhibition rate @10 μM” value (c-Met kinase; [1])?
A: 70.7%@10 μM

Q: For `COc1ccc(CNc2nccc(Oc3ccc(NC(=O)C4(Cl)CCCN(c5ccc(F)cc5)C4=O)cc3F)n2)cc1` (centres unmarked) [Compound 18b, 3-Chloro-N-(3-fluoro-4-((2-((4-methoxybenzyl)amino)pyrimidin-4-yl)oxy)phenyl)-1-(4-fluorophenyl)-2-oxopiperidine-3-carboxamide], which inhibition at 10 µM (c-Met kinase; [1]) is on record?
A: 10%

Q: With `CCCCC1(C(=O)Nc2ccc(Oc3ccnc4cc(OC)c(OC)cc34)c(F)c2)CCCN(c2ccc(F)cc2)C1=O` (centres unmarked) [Compound 20e, N-(4-((6,7-dimethoxyquinolin-4-yl)oxy)-3-fluorophenyl)-3-butyl-1-(4-fluorophenyl)-2-oxopiperidine-3-carboxamide] as the compound, how does the IC50 (c-Met kinase) read?
A: 64 ± 10.8 nM

Q: And the IC50 (MKN45 cells)?
A: 16000 ± 800 nM

Q: For `COc1cc2nccc(Oc3ccc(NC(=O)C4(C)CCCN(c5ccc(F)cc5)C4=O)cc3F)c2cc1OC` (centres unmarked) [Compound 20c, N-(4-((6,7-dimethoxyquinolin-4-yl)oxy)-3-fluorophenyl)-1-(4-fluorophenyl)-3-methyl-2-oxopiperidine-3-carboxamide], which IC50 (c-Met kinase) is on record?
A: 11.2 ± 4.1 nM

Q: And the IC50 (MKN45 cells)?
A: 650 ± 130 nM

Q: For `NC(=O)c1nccc(Oc2ccc(NC(=O)C3CCCN(c4ccc(F)cc4)C3=O)cc2F)c1Cl` (centres unmarked) [Compound 15a, 3-Chloro-4-(2-fluoro-4-(1-(4-fluorophenyl)-2-oxopiperidine-3-carboxamido)phenoxy)picolinamide], which inhibition at 10 µM (c-Met kinase; [1]) is on record?
A: 63.9%

Q: With “N-(4-((7H-pyrrolo[2,3-d]pyrimidin-4-yl)oxy)-3-fluorophenyl)-3-chloro-1-(4-fluorophenyl)-2-oxo-piperidine-3-carboxamide [Compound 17b]” as the compound, how does the “c-Met inhibition rate @10 μM” value (c-Met kinase; [1]) read?
A: 15.4%@10 μM

Q: What does the source list for `Nc1nccc(Oc2ccc(NC(=O)C3CCCN(c4ccc(F)cc4)C3=O)cc2F)n1` (centres unmarked) [Compound 19a, N-(4-((2-aminopyrimidin-4-yl)oxy)-3-fluorophenyl)-1-(4-fluorophenyl)-2-oxopiperidine-3-carbox-amide]?
A: inhibition at 1 µM (c-Met kinase; [2]): 27.5%; inhibition at 10 µM (c-Met kinase; [1]): 59.1%

Q: With `Nc1nccc(Oc2ccc(NC(=O)C3(Cl)CCCN(c4ccc(F)cc4)C3=O)cc2F)n1` (centres unmarked) [Compound 19b, N-(4-((2-aminopyrimidin-4-yl)oxy)-3-fluorophenyl)-3-chloro-1-(4-fluorophenyl)-2-oxopiperidine-3-carboxamide] as the compound, how does the inhibition at 1 µM (c-Met kinase; [2]) read?
A: 28.3%

Q: What about the inhibition at 10 µM (c-Met kinase; [1]) of the same compound?
A: 52.5%
